Assay type in all cases: functional, cell-based
The subject of one experiment is HeLa. The experiment is described as follows: Antiproliferative activity against human HeLa cells after 72 hrs by MTT assay. A general note: Tetrazolium dyes change colour on reduction, which living cells bring about.
The next experiment deals with Calu-1. The experiment in a line: Antiproliferative activity against human Calu1 cells after 72 hrs by MTT assay. The conditions noted are these: Calu-1, 72 h.
Experiment [1] concerns PC-3. The experiment in a line: Antiproliferative activity against human PC3 cells after 72 hrs by MTT assay. The conditions noted are these: PC-3, 72 h.
A further experiment deals with MCF7. The experiment in a line: Antiproliferative activity against human MCF7 cells after 72 hrs by MTT assay. The settings on record: MCF7, 72 h.
In a further experiment the test system is U-251. The experiment is described as follows: Antiproliferative activity against human U251MG cells after 72 hrs by MTT assay. The settings on record: U-251, 72 h.
The subject of experiment [2] is PC-3. The experiment is described as follows: Antiproliferative activity against human PC3 cells assessed as reduction in BrdU incorporation at 1 uM after 24 hrs by Hoechst staining based microscopic assay. On the technique in general: Dividing cells build labelled thymidine or BrdU into new DNA.

pIC50: −log10 of the molar value. Calls of active or inactive are those of the source. The calls are words filed in the database; no cut-off is given here.

What is called pIC50 is −log10 of the IC50, conventionally taken in molar units. A high value points to a low IC50. On to `C[C@]12[C@H](O)C[C@H]3[C@@H](CC[C@H]4C[C@@H](O)CC[C@@]43CO)[C@@]1(O)CC[C@@H]2C1=CC(=O)OC1`, for which the pIC50 was 6.05 in the experiment on HeLa; 5.89 in the experiment with Calu-1; 5.08 with PC-3 [1]; 5.60 with MCF7; 5.30 in the experiment on U-251.

With `C[C@]12CC[C@H](O)C[C@@H]1CC[C@@H]1[C@@H]2CC[C@]2(C)[C@@H](C3=CC(=O)OC3)CC[C@]12O`, the negative logarithm of the IC50 (pIC50) is 5.52 with HeLa; 5.10 with Calu-1; 6.52 with PC-3 [1]; 5.22 in the experiment on MCF7; 5.22 in the experiment with U-251.

For the compound `C[C@@H]1C[C@@H](O)[C@]2(O)O[C@@H]3C[C@@]4(C=O)[C@@H](CC[C@@H]5[C@@H]4C[C@@H](O)[C@]4(C)[C@@H](C6=CC(=O)OC6)CC[C@]54O)C[C@H]3O[C@@H]2O1`, the pIC50 is 5.60 in the experiment on HeLa; 5.15 in the experiment with Calu-1; 6.52 in the experiment on PC-3 [1]; 5.22 in the experiment with MCF7; 5.28 with U-251. Further, in the experiment on PC-3 [2], the outcome was Active.

With `C[C@]12CC[C@H](O[C@@H]3O[C@H](CO)[C@@H](O)[C@H](O)[C@H]3O)C[C@@H]1CC[C@@H]1[C@@H]2CC[C@]2(C)[C@@H](C3=CC(=O)OC3)CC[C@]12O` [DESGLUCOUZARIN], the negative logarithm of the IC50 (pIC50) with HeLa is 6.22; in the experiment on Calu-1 it was 5.19; in the experiment on PC-3 [1], 6.52; with MCF7 it was 5.22; with U-251 it was 5.10.

In the case of `C[C@@H]1C[C@@H](O)[C@]2(O)O[C@@H]3C[C@@]4(C=O)[C@@H](CC[C@@H]5[C@@H]4CC[C@]4(C)[C@@H](C6=CC(=O)OC6)CC[C@]54O)C[C@H]3O[C@@H]2O1` [CALACTIN], the pIC50 in the experiment on HeLa was 6.70; in the experiment on Calu-1, 6.30; with PC-3 [1], 5.43; with MCF7, 6.70; in the experiment with U-251, 6.05.

As to `C[C@]12CC[C@H]3[C@@H](CC[C@H]4C[C@@H](O[C@@H]5O[C@H](CO)[C@@H](O)[C@H](O)[C@H]5O)CC[C@@]43CO)[C@@]1(O)CC[C@@H]2C1=CC(=O)OC1`, the pIC50 in the experiment with HeLa is 6.52; with Calu-1 it was 5.22; in the experiment on PC-3 [1] it was 6.00; in the experiment with MCF7, 5.10; with U-251, 5.22.

As for `C[C@]12CC[C@H]3[C@@H](CC[C@H]4C[C@@H](O)CC[C@@]43CO)[C@@]1(O)CC[C@@H]2C1=CC(=O)OC1` [COROGLAUCIGENIN], the pIC50 in the experiment with HeLa is 5.38; with Calu-1, 5.24; in the experiment on PC-3 [1], 6.40; in the experiment on MCF7, 5.15; in the experiment on U-251 it was 5.30.

Regarding `C[C@@H]1C[C@@H](O)[C@]2(O)O[C@@H]3C[C@@]4(CO)[C@@H](CC[C@@H]5[C@@H]4C[C@@H](O)[C@]4(C)[C@@H](C6=CC(=O)OC6)CC[C@]54O)C[C@H]3O[C@@H]2O1`, the pIC50 is 5.15 in the experiment with HeLa; 5.22 in the experiment with Calu-1; 6.22 in the experiment with PC-3 [1]; 5.30 with MCF7; 5.10 in the experiment with U-251.

For the compound `C[C@]12CC[C@H]3[C@@H](CC[C@H]4C[C@H]5O[C@@H]6O[C@H](CO)C[C@H](O)[C@]6(O)O[C@@H]5C[C@@]43C=O)[C@@]1(O)CC[C@@H]2C1=CC(=O)OC1`, the negative-log IC50 (pIC50) in the experiment with HeLa is 6.52; in the experiment on Calu-1 it was 5.85; in the experiment with PC-3 [1] it was 5.49; in the experiment with MCF7, 5.74; with U-251, 5.30.

`C[C@]12[C@H](O)C[C@H]3[C@@H](CC[C@H]4C[C@H]5O[C@@H]6O[C@H](CO)C[C@@H](O)[C@]6(O)O[C@@H]5C[C@@]43CO)[C@@]1(O)CC[C@@H]2C1=CC(=O)OC1` [GHALAKINOSIDE]: the pIC50 in the experiment with HeLa was 6.05; with Calu-1, 6.15; in the experiment with PC-3 [1], 5.38; in the experiment with MCF7, 6.22; in the experiment with U-251 it was 5.28.

As to `C[C@@H]1C[C@H](O)[C@]2(O)O[C@@H]3C[C@@]4(C=O)[C@@H](CC[C@@H]5[C@@H]4C[C@@H](O)[C@]4(C)[C@@H](C6=CC(=O)OC6)[C@H](O)C[C@]54O)C[C@H]3O[C@@H]2O1`, the pIC50 in the experiment with HeLa was 5.64; in the experiment with Calu-1, 5.37; in the experiment on PC-3 [1], 6.22; in the experiment with MCF7, 5.15; with U-251 it was 5.82. Further, the outcome in the experiment on PC-3 [2] was Active.

With `C[C@]12[C@H](O)C[C@H]3[C@@H](CC[C@H]4C[C@H]5O[C@@H]6O[C@H](CO)C[C@H](O)[C@]6(O)O[C@@H]5C[C@@]43C=O)[C@@]1(O)CC[C@@H]2C1=CC(=O)OC1`, the negative logarithm of the IC50 (pIC50) was 5.70 with HeLa; 5.70 with Calu-1; 6.05 in the experiment on PC-3 [1]; 5.55 in the experiment with MCF7; 5.22 in the experiment on U-251. The outcome in the experiment on PC-3 [2] was Active.

For the compound `CC(=O)O[C@@]12CO[C@@H]1C[C@H](O)[C@@]1(C)C(=O)[C@H](O)C3=C(C)[C@@H](OC(=O)[C@H](O)[C@@H](NC(=O)OC(C)(C)C)c4ccccc4)C[C@@](O)([C@@H](OC(=O)c4ccccc4)[C@H]21)C3(C)C` [DOCETAXEL ANHYDROUS], the pIC50 is 9.52 in the experiment with HeLa; 9.40 in the experiment on Calu-1; 9.22 in the experiment with PC-3 [1]; 9.30 in the experiment with MCF7; 9.15 in the experiment with U-251.

As for `CC(=O)O[C@@H]1C[C@]2(O)[C@@H]3CC[C@H]4C[C@H]5O[C@@H]6O[C@H](C)C[C@H](O)[C@]6(O)O[C@@H]5C[C@]4(C=O)[C@H]3C[C@@H](O)[C@]2(C)[C@H]1C1=CC(=O)OC1`, the pIC50 was 6.30 in the experiment on HeLa; 6.15 in the experiment on Calu-1; 5.38 with PC-3 [1]; 6.40 with MCF7; 5.19 in the experiment on U-251.

In the case of `C[C@]12CC[C@H]3[C@@H](CC[C@H]4C[C@H]5O[C@@H]6O[C@H](CO)C[C@@H](O)[C@]6(O)O[C@@H]5C[C@@]43CO)[C@@]1(O)CC[C@@H]2C1=CC(=O)OC1`, the pIC50 with HeLa is 6.52; in the experiment on Calu-1 it was 6.22; in the experiment on PC-3 [1] it was 5.52; with MCF7, 6.70; with U-251, 5.92.

Turning to `COc1cc(/C=C/C(=O)OC[C@H]2O[C@@H](O[C@H]3CC[C@@]4(C)[C@@H](CC[C@@H]5[C@@H]4CC[C@]4(C)[C@@H](C6=CC(=O)OC6)CC[C@]54O)C3)[C@H](O)[C@@H](O)[C@@H]2O)ccc1O`, the pIC50 was 5.35 with HeLa; 5.22 with Calu-1; 6.52 in the experiment with PC-3 [1]; 6.70 with MCF7; 5.24 in the experiment with U-251.

Take `C[C@@H]1C[C@H](O)[C@]2(O)O[C@@H]3C[C@@]4(C=O)[C@@H](CC[C@@H]5[C@@H]4C[C@@H](O)[C@]4(C)[C@@H](C6=CC(=O)OC6)CC[C@]54O)C[C@H]3O[C@@H]2O1`: the pIC50 in the experiment with HeLa was 6.22; with Calu-1, 6.22; in the experiment on PC-3 [1] it was 5.68; in the experiment on MCF7, 6.70; in the experiment with U-251, 6.00.

For `C[C@@H]1C[C@@H](O[C@@H]2O[C@H](CO)[C@@H](O)[C@H](O)[C@H]2O)[C@]2(O)O[C@@H]3C[C@@]4(C=O)[C@@H](CC[C@@H]5[C@@H]4CC[C@]4(C)[C@@H](C6=CC(=O)OC6)CC[C@]54O)C[C@H]3O[C@@H]2O1`, the pIC50 in the experiment with HeLa was 6.22; with Calu-1, 6.52; in the experiment on PC-3 [1] it was 6.00; with MCF7, 6.70; with U-251 it was 5.36.

As to `C[C@]12[C@H](O)C[C@H]3[C@@H](CC[C@H]4C[C@H]5O[C@@H]6O[C@H](CO)C[C@@H](O)[C@]6(O)O[C@@H]5C[C@@]43C=O)[C@@]1(O)CC[C@@H]2C1=CC(=O)OC1`, the pIC50 in the experiment with HeLa was 6.52; with Calu-1 it was 5.43; with PC-3 [1] it was 5.05; in the experiment on MCF7 it was 5.70; with U-251 it was 5.26.

Values taken from ChEMBL document CHEMBL4371101, “Antiproliferative Cardenolides from the Aerial Parts of Pergularia tomentosa” (J Nat Prod, 2019).
